From ChEMBL document CHEMBL1127114, “Conformationally constrained analogues of diacylglycerol. 5. 2,5-Dideoxy-3-O-tetradecanoyl-D-galactono-1,4-lactone: A superior homologue of 3-O-tetradecanoyl-2-deoxy-L-ribonolactone with PK-C binding affinity” (Bioorg Med Chem Lett, 1993)

What was measured:
[1] = target: T1, Protein kinase C alpha type (Homo sapiens, UniProt P17252); assay: Inhibition of [20-3H]phorbol-12,13-dibutyrate(PDBU) binding to purified PK-C alpha
[2] = target: T1, Protein kinase C alpha type; assay: Inhibition of [3H]phorbol-12,13-dibutyrate binding to PK-C

| Ki [1] [nM] | Ki [2] [nM] | Structure (SMILES) |
| --- | --- | --- |
| 880 | – | CCCCCCCCCCCCCC(=O)O[C@@H]1CC(=O)O[C@H]1CCO |
| 1500 | 2500 | CCCCCCCCCCCCCC(=O)O[C@@H]1CC(=O)O[C@H]1CO |
